Assay results reported in PubChem BioAssay AID330 (DTP/NCI, 2004).
Where “and” joins values, the source holds several entries; their conditions need not be identical. Identical values can stand only once. Toxic doses and inconclusive results are not listed. The calls were made as follows: active = survival T/C of 150% or more; inactive = T/C below 125% in these data. Peptide text beside a SMILES is read from it. * marks the point of attachment. Bz = O=C(c1ccccc1)*; Bn = c1ccc(C*)cc1; βAla = NCCC(=O)O

System: P388 leukemia ip, CD2F1 mice, survival T/C
Assay: NCI In Vivo Anticancer Drug Screen. Data for tumor model P388 Leukemia (intraperitoneal) in CD2F1 (CDF1) mice
Settings: endpoint: median survival time, higher = longer survival
Procedure, shortened: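 Mice carrying the transplanted tumor received test compound or vehicle. Survival was recorded in each group, and the value is the treated-group measurement divided by that of the vehicle-treated control group.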

[1] = dose: 100.0 mg/kg/injection, schedule: Q01DX009 (ip), vehicle: saline
[2] = dose: 200.0 mg/kg/injection, schedule: Q01DX009 (ip), vehicle: saline
[3] = dose: 50.0 mg/kg/injection, schedule: Q01DX009 (ip), vehicle: Klucel (hydroxypropylcellulose) (HPC)
[4] = dose: 100.0 mg/kg/injection, schedule: Q01DX009 (ip), vehicle: Klucel (hydroxypropylcellulose) (HPC)
[5] = dose: 200.0 mg/kg/injection, schedule: Q01DX009 (ip), vehicle: Klucel (hydroxypropylcellulose) (HPC)
[6] = dose: 60.0 mg/kg/injection, schedule: Q01DX005 (ip), vehicle: saline with Tween-80
[7] = dose: 120.0 mg/kg/injection, schedule: Q01DX005 (ip), vehicle: saline with Tween-80
[8] = dose: 3.12 mg/kg/injection, schedule: Q01DX009 (ip), vehicle: Klucel (hydroxypropylcellulose) (HPC)
[9] = dose: 12.5 mg/kg/injection, schedule: Q01DX009 (ip), vehicle: saline
[10] = dose: 25.0 mg/kg/injection, schedule: Q01DX009 (ip), vehicle: Klucel (hydroxypropylcellulose) (HPC)
[11] = dose: 25.0 mg/kg/injection, schedule: Q01DX009 (ip), vehicle: other
[12] = dose: 25.0 mg/kg/injection, schedule: Q01DX009 (ip), vehicle: saline
[13] = dose: 50.0 mg/kg/injection, schedule: Q01DX009 (ip), vehicle: other
[14] = dose: 50.0 mg/kg/injection, schedule: Q01DX009 (ip), vehicle: saline
[15] = dose: 50.0 mg/kg/injection, schedule: Q01DX005 (ip), vehicle: saline with Tween-80
[16] = dose: 100.0 mg/kg/injection, schedule: Q01DX005 (ip), vehicle: saline with Tween-80
[17] = dose: 200.0 mg/kg/injection, schedule: Q01DX005 (ip), vehicle: saline with Tween-80
[18] = dose: 240.0 mg/kg/injection, schedule: Q01DX005 (ip), vehicle: saline with Tween-80

Measured: T/C

O=C1c2ccccc2C(=O)C(Cl)C1Cl (stereo not drawn)
inactive: dose: 1.56 mg/kg/injection, schedule: Q01DX009 (ip), vehicle: saline with Tween-80 100 % of control | dose: 3.13 mg/kg/injection, schedule: Q01DX009 (ip), vehicle: saline with Tween-80 101 % of control

C=CN=NNc1ccc(Cl)cc1
inactive: dose: 100.0 mg/kg/injection, schedule: Q04DX003 (ip), vehicle: saline + Tween-80 + alcohol 109 % of control | dose: 200.0 mg/kg/injection, schedule: Q04DX003 (ip), vehicle: saline + Tween-80 + alcohol 108 % of control | dose: 400.0 mg/kg/injection, schedule: Q04DX003 (ip), vehicle: saline + Tween-80 + alcohol 117 % of control

CN(C)Cc1ncccc1O
inactive: [1] 102 % of control and 95 % of control | [2] 100 % of control and 112 % of control | dose: 400.0 mg/kg/injection, schedule: Q01DX009 (ip), vehicle: saline 113 % of control

CC1(/C=C/c2ccccc2)NC(=O)NC1=O (stereo not drawn)
inactive: [3] 88 % of control | [4] 98 % of control | [5] 104 % of control

Nc1cccc(C(=O)c2ccc(N)c(N)c2)c1
inactive: [6] 90 % of control | [7] 92 % of control

CC1=CC(=Nc2ccc(N(CCCl)CCCl)cc2)C=C(C)C1=O
inactive: [8] 105 % of control | [9] 104 % of control and 118 % of control | [12] 114 % of control | [13] 91 % of control
active: dose: 12.5 mg/kg/injection, schedule: Q01DX009 (ip), vehicle: Klucel (hydroxypropylcellulose) (HPC) 186 % of control | dose: 12.5 mg/kg/injection, schedule: Q01DX009 (ip), vehicle: other 153 % of control | [10] 173 % of control and 186 % of control | [11] 235 % of control | [3] 170 % of control and 186 % of control | [14] 157 % of control | [1] 166 % of control

O=c1cc(-c2ccc(OCc3ccccc3)cc2)oc2ccccc12
inactive: [15] 92 % of control | [16] 87 % of control | [17] 86 % of control

CN(C)C1CCc2ccc3ccccc3c2C1=O (stereo not drawn)
inactive: dose: 50.0 mg/kg/injection, schedule: Q01DX005 (ip), vehicle: Klucel (hydroxypropylcellulose) (HPC) 98 % of control | dose: 100.0 mg/kg/injection, schedule: Q01DX005 (ip), vehicle: Klucel (hydroxypropylcellulose) (HPC) 103 % of control

O=C(NCc1nc2ccccc2[nH]1)C(F)(F)F
inactive: dose: 60.0 mg/kg/injection, schedule: Q01DX005 (ip), vehicle: Klucel (hydroxypropylcellulose) (HPC) 103 % of control | dose: 120.0 mg/kg/injection, schedule: Q01DX005 (ip), vehicle: Klucel (hydroxypropylcellulose) (HPC) 105 % of control | dose: 240.0 mg/kg/injection, schedule: Q01DX005 (ip), vehicle: Klucel (hydroxypropylcellulose) (HPC) 104 % of control

CCCCCCCNC1=C(N2CC2)C(=O)C(NCCCCCCC)=C(N2CC2)C1=O
inactive: dose: 1.25 mg/kg/injection, schedule: Q01DX009 (ip), vehicle: saline 100 % of control | dose: 2.5 mg/kg/injection, schedule: Q01DX009 (ip), vehicle: saline 105 % of control and 107 % of control | dose: 5.0 mg/kg/injection, schedule: Q01DX009 (ip), vehicle: saline 105 % of control and 106 % of control | dose: 10.0 mg/kg/injection, schedule: Q01DX009 (ip), vehicle: saline 106 % of control and 94 % of control | dose: 20.0 mg/kg/injection, schedule: Q01DX009 (ip), vehicle: saline 115 % of control and 90 % of control

NS(=O)(=O)c1ccc(N2CCS(=O)(=O)CC2)cc1
inactive: [14] 101 % of control | [1] 90 % of control | [2] 97 % of control

O=C(CCCCCCCCc1ccccc1)c1c(O)cccc1O
inactive: dose: 6.0 mg/kg/injection, schedule: Q01DX009 (ip), vehicle: Klucel (hydroxypropylcellulose) (HPC) 95 % of control | dose: 12.0 mg/kg/injection, schedule: Q01DX009 (ip), vehicle: Klucel (hydroxypropylcellulose) (HPC) 88 % of control | dose: 24.0 mg/kg/injection, schedule: Q01DX009 (ip), vehicle: Klucel (hydroxypropylcellulose) (HPC) 97 % of control | dose: 48.0 mg/kg/injection, schedule: Q01DX009 (ip), vehicle: Klucel (hydroxypropylcellulose) (HPC) 97 % of control

COC(=O)C(CSCc1ccccc1)NC(=O)C(CSCc1ccccc1)NC(=O)CCNC(=O)c1ccccc1 (stereo not drawn) ({Bz-βAla}-Cys(Bn)-Cys(Bn)-OMe; configuration not given here)
inactive: dose: 12.5 mg/kg/injection, schedule: Q01DX009 (ip), vehicle: distilled water + Tween-80 92 % of control | dose: 25.0 mg/kg/injection, schedule: Q01DX009 (ip), vehicle: distilled water + Tween-80 89 % of control | dose: 50.0 mg/kg/injection, schedule: Q01DX009 (ip), vehicle: distilled water + Tween-80 90 % of control | dose: 100.0 mg/kg/injection, schedule: Q01DX009 (ip), vehicle: distilled water + Tween-80 94 % of control

CC(=O)Nc1ccc(S(=O)(=O)N/N=c2/sc3ccccc3n2C)cc1N
inactive: dose: 6.25 mg/kg/injection, schedule: Q01DX009 (ip), vehicle: saline 96 % of control | [9] 103 % of control | [12] 100 % of control | [1] 88 % of control | [2] 92 % of control

CCOC(=O)C(=CC=C(C(=O)OCC)C(=O)OCC)C(=O)OCC
inactive: dose: 100.0 mg/kg/injection, schedule: Q04DX002 (ip), vehicle: saline with Tween-80 112 % of control | dose: 200.0 mg/kg/injection, schedule: Q04DX002 (ip), vehicle: saline with Tween-80 113 % of control | dose: 400.0 mg/kg/injection, schedule: Q04DX002 (ip), vehicle: saline with Tween-80 115 % of control

Cc1cccc(/C=N/N2CCN(C(c3ccccc3)c3ccccc3)CC2)n1
inactive: dose: 100.0 mg/kg/injection, schedule: Q01DX001 (ip), vehicle: Klucel (hydroxypropylcellulose) (HPC) 100 % of control | dose: 200.0 mg/kg/injection, schedule: Q01DX001 (ip), vehicle: Klucel (hydroxypropylcellulose) (HPC) 97 % of control | dose: 400.0 mg/kg/injection, schedule: Q01DX001 (ip), vehicle: Klucel (hydroxypropylcellulose) (HPC) 100 % of control

N#CC(C#N)=C/C=C/c1cccc([N+](=O)[O-])c1
inactive: [8] 114 % of control | dose: 6.25 mg/kg/injection, schedule: Q01DX009 (ip), vehicle: Klucel (hydroxypropylcellulose) (HPC) 123 % of control | dose: 8.2 mg/kg/injection, schedule: Q01DX009 (ip), vehicle: Klucel (hydroxypropylcellulose) (HPC) 118 % of control | [10] 100 % of control

CCN(CC)CCN1C(=O)NC2(CCCCC2)C1=O
inactive: [6] 101 % of control | [7] 100 % of control | [18] 99 % of control

COc1ccc(-c2sc(/N=C/c3cc(Br)cc(Br)c3O)c(C#N)c2C)cc1OC
inactive: dose: 12.5 mg/kg/injection, schedule: Q01DX009 (ip), vehicle: saline with Tween-80 103 % of control | dose: 25.0 mg/kg/injection, schedule: Q01DX009 (ip), vehicle: saline with Tween-80 97 % of control | dose: 50.0 mg/kg/injection, schedule: Q01DX009 (ip), vehicle: saline with Tween-80 99 % of control | dose: 100.0 mg/kg/injection, schedule: Q01DX009 (ip), vehicle: saline with Tween-80 94 % of control

CNc1ccccc1C(=O)NNC(=O)Nc1ccccc1C(F)(F)F
inactive: [15] 98 % of control | [16] 100 % of control | [17] 111 % of control

CSc1nc(C(N)=O)c(N)c(=O)[nH]1
inactive: [3] 109 % of control | [4] 110 % of control | [5] 117 % of control

CSc1cccc(NC(=O)Oc2cccnc2)c1
inactive: [3] 103 % of control | [4] 100 % of control | [5] 100 % of control

CCCCCCCCCCCCn1ccnc1
inactive: dose: 100.0 mg/kg/injection, schedule: Q04DX003 (ip), vehicle: saline with Tween-80 102 % of control | dose: 200.0 mg/kg/injection, schedule: Q04DX003 (ip), vehicle: saline with Tween-80 97 % of control

COc1cc(C2c3cc4c(cc3OC3(O)COC(=O)C23)OCO4)cc(OC)c1OC (stereo not drawn)
inactive: [6] 88 % of control | [7] 91 % of control | [18] 86 % of control

Cc1[nH]c(C(=O)O)cc(=O)c1C
inactive: [11] 103 % of control | [13] 103 % of control | dose: 100.0 mg/kg/injection, schedule: Q01DX009 (ip), vehicle: other 101 % of control | dose: 200.0 mg/kg/injection, schedule: Q01DX009 (ip), vehicle: other 99 % of control | dose: 400.0 mg/kg/injection, schedule: Q01DX009 (ip), vehicle: other 97 % of control

CC(=O)Nc1c(C)cccc1C
inactive: [10] 93 % of control | [3] 100 % of control | [4] 97 % of control | [5] 103 % of control
